Experimental data published in paper PMC7262789 (Journal of medicinal chemistry, 2019).
Entries after “also recorded” stand apart in the source; their conditions may differ.

Assays:
[1] = molecular target: T1, recombinant sEH-P domain (N-terminal domain of sEH) (Homo sapiens, UniProt P34913); assay: FDP-based phosphatase assay, isolated sEH-P domain; format: biochemical; details: FDP substrate, recombinant sEH-P domain
T1 sequence (P34913 1-222): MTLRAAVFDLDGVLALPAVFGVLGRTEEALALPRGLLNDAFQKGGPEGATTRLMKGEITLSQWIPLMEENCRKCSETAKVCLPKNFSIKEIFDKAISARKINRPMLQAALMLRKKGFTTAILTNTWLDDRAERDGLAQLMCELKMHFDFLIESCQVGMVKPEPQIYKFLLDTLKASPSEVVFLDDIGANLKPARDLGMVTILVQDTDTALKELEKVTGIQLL

[2] = molecular target: T2, human fl sEH (sEH-H activity) (Homo sapiens, UniProt P34913); assay: PHOME-based hydrolase assay, full-length human sEH; format: biochemical
T2 sequence (P34913 1-555): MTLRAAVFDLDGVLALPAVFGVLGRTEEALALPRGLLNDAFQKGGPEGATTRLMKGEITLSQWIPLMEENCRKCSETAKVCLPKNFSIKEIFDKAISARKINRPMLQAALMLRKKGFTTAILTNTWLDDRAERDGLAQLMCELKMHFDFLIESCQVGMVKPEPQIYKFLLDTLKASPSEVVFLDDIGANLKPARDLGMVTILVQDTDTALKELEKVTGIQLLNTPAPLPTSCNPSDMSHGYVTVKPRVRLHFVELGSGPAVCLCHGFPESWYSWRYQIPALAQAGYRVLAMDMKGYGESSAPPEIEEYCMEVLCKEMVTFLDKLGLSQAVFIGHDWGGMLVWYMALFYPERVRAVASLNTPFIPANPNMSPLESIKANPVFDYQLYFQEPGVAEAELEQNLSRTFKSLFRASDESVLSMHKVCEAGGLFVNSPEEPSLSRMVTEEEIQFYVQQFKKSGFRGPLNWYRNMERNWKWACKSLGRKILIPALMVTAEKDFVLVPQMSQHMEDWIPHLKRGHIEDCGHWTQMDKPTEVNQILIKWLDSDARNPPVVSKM

[3] = molecular target: T3, N-terminal domain of sEH (sEH-P) (Homo sapiens, UniProt P34913); assay: Differential scanning fluorimetry; format: binding; details: inhibitor 50 μM
T3 sequence (P34913 2-224): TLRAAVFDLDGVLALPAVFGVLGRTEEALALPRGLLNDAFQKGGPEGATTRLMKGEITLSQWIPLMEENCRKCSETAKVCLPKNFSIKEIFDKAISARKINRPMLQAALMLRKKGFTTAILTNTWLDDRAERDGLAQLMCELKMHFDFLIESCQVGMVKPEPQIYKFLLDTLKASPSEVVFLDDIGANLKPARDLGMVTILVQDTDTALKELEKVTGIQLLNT

[4] = molecular target: T4, C-terminal domain of sEH (sEH-H) (Homo sapiens, UniProt P34913); assay: Differential scanning fluorimetry; format: binding; details: inhibitor 50 μM
T4 sequence (P34913 235-555 limits assumed): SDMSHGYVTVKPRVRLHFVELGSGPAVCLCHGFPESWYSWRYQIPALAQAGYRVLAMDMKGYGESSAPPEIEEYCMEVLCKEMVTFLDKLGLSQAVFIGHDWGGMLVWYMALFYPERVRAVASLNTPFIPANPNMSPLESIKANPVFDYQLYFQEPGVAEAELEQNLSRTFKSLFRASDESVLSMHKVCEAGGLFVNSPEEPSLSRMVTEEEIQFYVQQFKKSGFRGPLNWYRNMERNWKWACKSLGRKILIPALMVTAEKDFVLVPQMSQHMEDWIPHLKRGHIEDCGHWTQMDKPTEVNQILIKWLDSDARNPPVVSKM

PPARα = molecular target: T5, PPARα (Homo sapiens, UniProt Q07869); assay: Gal4 hybrid reporter gene assay in HEK293T cells; format: cell-based; details: at 10 μM; reference GW7647 1 μM
T5 sequence (Q07869 239-466 limits assumed): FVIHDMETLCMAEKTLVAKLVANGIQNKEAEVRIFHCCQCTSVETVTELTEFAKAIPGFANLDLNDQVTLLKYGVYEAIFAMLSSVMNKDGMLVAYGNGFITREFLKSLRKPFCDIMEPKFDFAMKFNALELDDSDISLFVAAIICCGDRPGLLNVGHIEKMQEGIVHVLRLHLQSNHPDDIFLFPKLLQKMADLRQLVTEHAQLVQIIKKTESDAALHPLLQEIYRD

PPARβ/δ = molecular target: T6, PPARβ/δ (Homo sapiens, UniProt Q03181); assay: Gal4 hybrid reporter gene assay in HEK293T cells; format: cell-based; details: at 10 μM; reference L165,041 1 μM
T6 sequence (Q03181 211-439 limits assumed): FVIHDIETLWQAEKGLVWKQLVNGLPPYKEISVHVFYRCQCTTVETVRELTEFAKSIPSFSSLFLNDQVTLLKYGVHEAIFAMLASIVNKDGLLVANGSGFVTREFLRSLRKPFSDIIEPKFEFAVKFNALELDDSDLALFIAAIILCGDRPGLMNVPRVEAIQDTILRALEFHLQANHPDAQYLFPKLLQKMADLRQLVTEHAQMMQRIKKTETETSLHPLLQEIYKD

FXR = molecular target: T7, FXR (Homo sapiens, UniProt Q96RI1); assay: Gal4 hybrid reporter gene assay in HEK293T cells; format: cell-based; details: at 10 μM; reference GW4064 1 μM
T7 sequence (Q96RI1 262-486 limits assumed): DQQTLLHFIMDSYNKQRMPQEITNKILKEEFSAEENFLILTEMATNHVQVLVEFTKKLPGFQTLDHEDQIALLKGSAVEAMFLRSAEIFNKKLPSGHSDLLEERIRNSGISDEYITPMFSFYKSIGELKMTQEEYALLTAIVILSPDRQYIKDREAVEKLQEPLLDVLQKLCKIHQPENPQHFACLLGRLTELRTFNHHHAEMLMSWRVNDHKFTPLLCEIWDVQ

LXRα = molecular target: T8, LXRα (Homo sapiens, UniProt Q13133); assay: Gal4 hybrid reporter gene assay in HEK293T cells; format: cell-based; details: at 10 μM; reference T0901317 1 μM
T8 sequence (Q13133 209-447 limits assumed): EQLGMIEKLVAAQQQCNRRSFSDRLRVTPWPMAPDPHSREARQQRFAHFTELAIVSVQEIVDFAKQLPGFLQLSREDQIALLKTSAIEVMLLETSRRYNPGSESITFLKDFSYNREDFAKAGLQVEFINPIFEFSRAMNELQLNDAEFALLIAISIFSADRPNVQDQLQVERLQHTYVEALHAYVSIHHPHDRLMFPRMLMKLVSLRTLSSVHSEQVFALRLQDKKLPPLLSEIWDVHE

LXRβ = molecular target: T9, LXRβ (Homo sapiens, UniProt P55055); assay: Gal4 hybrid reporter gene assay in HEK293T cells; format: cell-based; details: at 10 μM; reference T0901317 1 μM
T9 sequence (P55055 222-460 limits assumed): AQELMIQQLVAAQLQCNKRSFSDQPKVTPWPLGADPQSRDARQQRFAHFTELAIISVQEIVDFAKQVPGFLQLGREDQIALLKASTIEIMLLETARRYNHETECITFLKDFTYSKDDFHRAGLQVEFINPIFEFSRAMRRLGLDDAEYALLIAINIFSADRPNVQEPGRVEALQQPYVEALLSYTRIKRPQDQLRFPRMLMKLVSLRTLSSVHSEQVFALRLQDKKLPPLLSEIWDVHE

[5] = Pharmacokinetic study in male Sprague-Dawley rats; format: in vivo, rat; details: 30 mg/kg p.o., male SD rats
sEH-H = assay: Epoxy fatty acid/diol ratios in rat plasma by LC-MS/MS; format: in vivo; details: rat plasma 8 h after 30 mg/kg p.o., vs vehicle
full-length human sEH = molecular target: T10, full-length human sEH (Homo sapiens, UniProt P34913); assay: DiFMUP-based phosphatase assay, full-length sEH; details: DiFMUP substrate
T10 sequence (P34913 1-555): T2 sequence (P34913 1-555)

[6] = molecular target: T11, isolated N-terminal domain of sEH (sEH-P) (Homo sapiens, UniProt P34913); assay: DiFMUP-based phosphatase assay, isolated N-terminal domain; details: DiFMUP substrate
T11 sequence (P34913 1-222): T1 sequence (P34913 1-222)

PPARγ = molecular target: T12, PPARγ (Homo sapiens, UniProt P37231); assay: Gal4 hybrid reporter gene assay in HEK293T cells; format: cell-based; details: at 10 μM; reference pioglitazone 1 μM
T12 sequence (P37231 238-503 limits assumed): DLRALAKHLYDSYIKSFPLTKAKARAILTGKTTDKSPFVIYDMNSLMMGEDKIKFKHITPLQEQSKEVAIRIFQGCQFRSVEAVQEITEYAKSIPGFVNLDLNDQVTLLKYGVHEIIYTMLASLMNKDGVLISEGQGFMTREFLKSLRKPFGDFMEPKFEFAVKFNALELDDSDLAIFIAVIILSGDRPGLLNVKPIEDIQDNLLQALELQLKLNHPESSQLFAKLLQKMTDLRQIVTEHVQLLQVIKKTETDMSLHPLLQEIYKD

SMILES | inhibitory potency toward sEH-P (SAR statement in words) [1] | IC50 [2] [µM] | stabilization of the N-terminal domain in DSF [3] | stabilization of the C-terminal domain in DSF [4] | PPARα transactivation of the reference agonist (PPARα) | PPARβ/δ transactivation of the reference agonist (PPARβ/δ) | FXR transactivation of the reference agonist (FXR) | LXRα transactivation of the reference agonist (LXRα) | LXRβ transactivation of the reference agonist (LXRβ) | maximum plasma concentration [5] [µg/mL] | ratio of main epoxy fatty acids to their respective diols (sEH-H) | mode of inhibition (full-length human sEH) | mode of inhibition [6] | PPARγ transactivation of the reference agonist (PPARγ)
O=C(O)CCCc1nc(-c2ccc(Cl)c(Cl)c2)c(-c2ccccc2)o1 [22b, 4-(4-(3,4-Dichlorophenyl)-5-phenyloxazol-2-yl)butanoic Acid] | further improved the inhibitory activity | ~9 | stabilized; also recorded: able to stabilize | did not stabilize | inactive at 10 μM | inactive at 10 μM | inactive at 10 μM | inactive at 10 μM | inactive at 10 μM | 48 | did not influence | competitive inhibitor | competitive inhibitor | –
O=C(O)CCc1nc(-c2ccccc2)c(-c2ccccc2)o1 [compound 5, oxaprozin, reference compound] | – | – | – | – | inactive at 10 μM | inactive at 10 μM | – | inactive at 10 μM | inactive at 10 μM | – | – | – | – | inactive at 10 μM
